Source: patent US20170334899A1, “AMINO-SUBSTITUTED ISOTHIAZOLES” (Bayer Pharma Aktiengesellschaft, priority 2014, published 2017)

Tests used:
[1] = tested on: human cervical tumor cell line HeLa (ATCC CCL-2); test: SAC-Formation - Nocodazole-Induced Assay; format: cell-based; details: 24 h, HeLa cells, nocodazole 0.1 μg/ml together with test compound, decrease of mitotic cells (phospho-histone H3 Ser10)
In short: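 Loss of phospho-histone H3 Ser10-positive cells, counted against Hoechst-stained nuclei by high-content imaging, marked mitotic breakthrough. Compounds (0.005–20 μM, 0.5% DMSO) were co-dosed with 0.1 μg/ml nocodazole onto HeLa cells for 24 h at 37 °C. Curves were fitted with a four-parameter Hill equation.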

[2] = tested on: human cervical tumor cell line HeLa (ATCC CCL-2); test: SAC-Formation - Paclitaxel-Induced Assay; format: cell-based; details: 24 h, HeLa cells, paclitaxel 0.05 μM, test range 0.005 μM-20 μM, read-out: IC50 [mol/l] SAC-Formation - Paclitaxel-Induced Assay
In short: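 Read-out is high-content imaging of anti-phospho-H3 Ser10 (mitosis) and Hoechst 33342 (DNA, cell number), with decreased mitotic fraction marking checkpoint breakthrough. Compounds (0.005–20 μM) and 0.05 μM paclitaxel co-added to overnight-plated HeLa for 24 h at 37° C; four-parameter Hill fit.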

Row | SMILES | IC50 ([1]; Homo sapiens, HeLa) [µM] | IC50 ([2]; Homo sapiens, HeLa) [µM] | IC50 [1] [µM] | IC50 [2] [µM]
1 | Cc1nsc(Nc2cc(C#N)ccn2)c1C(=O)Nc1cccc(C(=O)N2CCCC2)c1 [Example 114, 5-[(4-Cyanopyridin-2-yl)amino]-3-methyl-N-[3-(pyrrolidin-1-ylcarbonyl)phenyl]-1,2-thiazole-4-carboxamide] | 0.21 | 1.3 |  | 
2 | Cc1nsc(Nc2cnc(C(F)(F)F)cn2)c1C(=O)Nc1ccc(F)c(OCC2CCCN(CC(F)F)C2)c1 (stereo not drawn) [Example 335, N-(3-{[1-(2,2-difluoroethyl)piperidin-3-yl]methoxy}-4-fluorophenyl)-3-methyl-5-{[5-(trifluoromethyl)pyrazin-2-yl]amino}-1,2-thiazole-4-carboxamide] |  |  | 0.055 | 0.098
3 | Cc1nsc(Nc2cnc(C(F)(F)F)cn2)c1C(=O)Nc1ccc(O[C@@H]2CCN(CCC(F)(F)F)C2)nc1 [Example 423, 3-Methyl-5-{[5-(trifluoromethyl)pyrazin-2-yl]amino}-N-(6-{[(3R)-1-(3,3,3-trifluoropropyl)pyrrolidin-3-yl]oxy}pyridin-3-yl)-1,2-thiazole-4-carboxamide] |  |  | 0.047 | 0.14
4 | Cc1nsc(Nc2cnc(C(F)(F)F)cn2)c1C(=O)Nc1ccc(O[C@H]2CCN(CC(F)F)C[C@H]2F)nc1 [Example 144, N-(6-{[(3R,4S)-1-(2,2-difluoroethyl)-3-fluoropiperidin-4-yl]oxy}pyridin-3-yl)-3-methyl-5-{[5-(trifluoromethyl)pyrazin-2-yl]amino}-1,2-thiazole-4-carboxamide] | 0.036 | 0.094 |  | 
5 | CC(=O)N1CCC(Oc2ccc(NC(=O)c3c(C)nsc3Nc3cnc(C(F)(F)F)cn3)cn2)CC1 [Example 11, N-{6-[(1-Acetylpiperidin-4-yl)oxy]pyridin-3-yl}-3-methyl-5-{[5-(trifluoromethyl)-pyrazin-2-yl]amino}-1,2-thiazole-4-carboxamide] | 1 | 0.15 |  | 
6 | Cc1nsc(Nc2cnc3ccccc3n2)c1C(=O)Nc1cccc(-c2nnc(C(C)(C)C)o2)c1 [Example 107, N-[3-(5-tert-Butyl-1,3,4-oxadiazol-2-yl)phenyl]-3-methyl-5-(quinoxalin-2-ylamino)-1,2-thiazole-4-carboxamide] | 0.011 | 0.21 |  | 
7 | Cc1nsc(Nc2cnc3ccccc3n2)c1C(=O)Nc1ccc(C(=O)N2CCCN(CC(F)(F)F)CC2)cc1 [Example 159] | 1.5 | 10 |  | 
8 | Cc1nsc(Nc2cnc3ccccc3n2)c1C(=O)Nc1ccc(NC2CC2)nc1 [Example 172, N-[6-(cyclopropylamino)pyridin-3-yl]-3-methyl-5-(quinoxalin-2-ylamino)-1,2-thiazole-4-carboxamide] | 3.5 | 2.3 |  | 
9 | Cc1nsc(Nc2cnc(C(F)(F)F)cn2)c1C(=O)Nc1ccc(C(=O)O)cc1 [Example 97, 4-{[(3-Methyl-5-{[5-(trifluoromethyl)pyrazin-2-yl]amino}-1,2-thiazol-4-yl)carbony]-amino}benzoic acid] | 0.024 | 20 |  | 
10 | Cc1nsc(Nc2cnc(C(F)(F)F)cn2)c1C(=O)Nc1ccc(OC2CCN(CCF)CC2)nc1 [Example 7, N-(6-{[1-(2-Fluoroethyl)piperidin-4-yl]oxy}pyridin-3-yl)-3-methyl-5-{[5-(trifluoromethyl)pyrazin-2-yl]amino}-1,2-thiazole-4-carboxamide] | 0.6 | 0.77 |  | 
11 | Cc1nsc(Nc2cnc(C(F)(F)F)cn2)c1C(=O)Nc1ccc(OCC2CCN(CC(F)(F)F)C2)nc1 (stereo not drawn) [Example 123, 3-Methyl-N-(6-{[1-(2,2,2-trifluoroethyl)pyrrolidin-3-yl]methoxy}pyridin-3-yl)-5-{[5-(trifluoromethyl)pyrazin-2-yl]amino}-1,2-thiazole-4-carboxamide] | 0.012 | 0.024 |  | 
12 | Cc1nsc(Nc2cnc(C(F)(F)F)cn2)c1C(=O)Nc1ccc(OCC2CCN(CC(F)F)C2)nc1 (stereo not drawn) [Example 122, N-(6-{[1-(2,2-difluoroethyl)pyrrolidin-3-yl]methoxy}pyridin-3-yl)-3-methyl-5-{[5-(trifluoromethyl)pyrazin-2-yl]amino}-1,2-thiazole-4-carboxamide] | 0.039 | 0.03 |  | 
